Reference: PMC7571299 (ACS Pharmacology & Translational Science, 2020)
Entries after “also recorded” stand apart in the source; their conditions may differ. Where two headings read alike, the source gives them in different places.

Key:
SARS-CoV-2 [1] = conditions: cited from earlier work; for Activity in NCATS CPE experiments: NCATS HTS
SARS-CoV-2 [2] = type: cell-based
[3] = cited from earlier work
SARS-CoV-2 [4] = type: cell-based; remark: listed apart in the source
[5] = tested on: SARS-CoV-2 Isolate USA-WA1/2020; assay: Vero E6 cell assay; type: cell-based
Vero E6 cells = conditions: Vero E6, absence of virus, UTHSC

## O=C(CCCCCCC(=O)Nc1ccccc1)NO [vorinostat]
SARS-CoV-2 [1]
  Activity in NCATS CPE experiments: low activity

## Cc1[nH]c2ccccc2c1CCNCc1ccc(/C=C/C(=O)NO)cc1 [panobinostat]
SARS-CoV-2 [1]
  Activity in NCATS CPE experiments: low activity

## CCCCc1nc2cc(/C=C/C(=O)NO)ccc2n1CCN(CC)CC [pracinostat]
SARS-CoV-2 [1]
  Activity in NCATS CPE experiments: low activity

## O=C(OCC(O)CO)c1ccccc1Nc1ccnc2cc(Cl)ccc12 (centres unmarked) [glafenine]
SARS-CoV-2 [1]
  Activity in NCATS CPE experiments: low activity

## OC(CNCC(O)C1CCc2cc(F)ccc2O1)C1CCc2cc(F)ccc2O1 (centres unmarked) [nebivolol]
SARS-CoV-2 [2]
  Reduction of virus titer: more than 1 log units
SARS-CoV-2 [1]
  Activity in NCATS CPE experiments: poor activity

## CN(Cc1cc(Br)cc(Br)c1N)C1CCCCC1 [bromhexine]
SARS-CoV-2 [1]
  Activity in NCATS CPE experiments: found active
SARS-CoV-2 [1]; read-out: EC50 in CPE assay, NCATS
  EC50: 13.9 µM

## OCCN1CCN(CC/C=C2/c3ccccc3Sc3ccc(Cl)cc32)CC1 [zuclopenthixol]
SARS-CoV-2 [2]
  Reduction of virus titer: more than 1 log unit
[3]; listed as ZPX
  bioavailability: about 50%
SARS-CoV-2 [4]; 8.33 μM, UTHSC
  Peak of activity: 80%

## CCNCc1cc(Nc2ccnc3cc(Cl)ccc23)ccc1O [N-monodesethyl amodiaquine]
[5]
  Antiviral activity compared to chloroquine: almost inactive
Vero E6 cells
  CC50: 5.9 µM
[3]
  half-life: ~20.8 days
[3]; human, in vivo
  half-life: over 3 weeks
SARS-CoV-2 [4]
  EC50: 4 µM

## CCN(CC)Cc1cc(Nc2ccnc3cc(Cl)ccc23)ccc1O [amodiaquine]
[3]
  half-life: 0.12 days
SARS-CoV-2 [1]
  Activity in NCATS CPE experiments: high activity

## COc1cc(NC(C)CCCN)c2ncccc2c1 (centres unmarked) [primaquine]
[5]
  Antiviral activity in dose-response experiment in comparison with chloroquine: no appreciable activity
SARS-CoV-2 [2]
  Reduction of virus titer: Neither primaquine nor ambroxol were found to reduce the virus titer
SARS-CoV-2 [4]; UTHSC dose response
  Antiviral activity at the tested concentrations: did not exhibit appreciable activity

## CCC(CC)COC(=O)[C@H](C)N[P@](=O)(OC[C@H]1O[C@@](C#N)(c2ccc3c(N)ncnn23)[C@H](O)[C@@H]1O)Oc1ccccc1 [remdesivir]
SARS-CoV-2 [2]
  Reduction of virus titer: 3–4 log units

## CCN(CC)CCCC(C)Nc1ccnc2cc(Cl)ccc12 (centres unmarked) [chloroquine]
SARS-CoV-2 [2]
  Reduction of virus titer: did not reduce the virus titer

## CC(COc1ccccc1)NC(C)C(O)c1ccc(O)cc1 (centres unmarked) [isoxsuprine]
SARS-CoV-2 [1]
  Activity in NCATS CPE experiments: low activity

## Nc1c(Br)cc(Br)cc1CN[C@H]1CC[C@H](O)CC1 [ambroxol]
SARS-CoV-2 [2]
  Reduction of virus titer: inactive; also recorded: Neither primaquine nor ambroxol were found to reduce the virus titer
SARS-CoV-2 [1]
  Activity in NCATS CPE experiments: low activity
